# Data taken from patent US10864196B2, “Modulators of the integrated stress pathway” (Calico Life Sciences LLC, priority 2016, dated 2020).
# Test system: HEK293T cells carrying the ATF4 luciferase reporter
# Assay: ATF4-Luc assay (in vitro model of VWMD)
# Format: cell-based
# Settings: Homo sapiens, HEK-293T, 1 μg/mL tunicamycin, 7 hours, One Glo luminescence
# Protocol: In order to test exemplary compounds of the invention in a cellular context, a stable VWMD cell line was first constructed. The ATF4 reporter was prepared by fusing the human full-length ATF4 5′-UTR (NCBI Accession No. BC022088.2) in front of the firefly luciferase (FLuc) coding sequence lacking the initiator methionine as described in Sidrauski et al (eLife 2013). The construct was used to produce recombinant retroviruses using standard methods and the resulting viral supernatant was used to transduce HEK293T cells, which were then subsequently selected with puromycin to generate a stable cell line.
# HEK293T cells carrying the ATF4 luciferase reporter were plated on polylysine coated 384-well plates (Greiner Bio-one) at 30,000 cells per well. Cells were treated the next day with 1 μg/mL tunicamycin and 200 nM of a compound of Formula (I) for 7 hours. Luminescence was measured using One Glo (Promega) as specified by the manufacturer. Cells were maintained in DMEM with L-glutamine supplemented with 10% heat-inactivated FBS (Gibco) and Antibiotic-Antimycotic solution (Gibco).
# Table 2 below summarizes the EC50 data obtained using the ATF4-Luc assay for exemplary compounds of the invention.
row,Structure (SMILES),EC50 [nM]
1,"N#Cc1cccc(Oc2nnc(C34CC(NC(=O)COc5ccc(Cl)c(F)c5)(C3)C4)o2)c1 [Compound 129, 2-(4-chloro-3-fluorophenoxy)-N-{3-[5-(3-cyanophenoxy)-1,3,4-oxadiazol-2-yl]bicyclo[1.1.1]pentan-1-yl}acetamide]",50 to 250
2,"N#Cc1ccc(OCc2nnc(C34CC(NC(=O)COc5ccc(Cl)c(F)c5)(C3)C4)o2)cn1 [Compound 157, 2-(4-chloro-3-fluorophenoxy)-N-[3-(5-{[(6-cyanopyridin-3-yl)oxy]methyl}-1,3,4-oxadiazol-2-yl)bicyclo[1.1.1]pentan-1-yl]acetamide]",250 to 1000
3,"O=C(COc1ccc(Cl)c(F)c1)NC12CC(c3nnc(Oc4ccc(Cl)cc4)o3)(C1)C2 [Compound 128, 2-(4-chloro-3-fluorophenoxy)-N-{3-[5-(4-chlorophenoxy)-1,3,4-oxadiazol-2-yl]bicyclo[1.1.1]pentan-1-yl}acetamide]",< 50
4,"O=C(COc1ccc(Cl)c(F)c1)NC12CC(c3nc(COc4ccc(Cl)cc4)no3)(C1)C2 [Compound 110, 2-(4-chloro-3-fluorophenoxy)-N-(3-{3-[(4-chlorophenoxy)methyl]-1,2,4-oxadiazol-5-yl}bicyclo[1.1.1]pentan-1-yl)acetamide]",50 to 250
5,"O=C(COc1ccc(Cl)cc1)NC12CC(c3nc(COc4ccc(Cl)c(Cl)c4)no3)(C1)C2 [Compound 158, 2-(4-chlorophenoxy)-N-(3-{3-[(3,4-dichlorophenoxy)methyl]-1,2,4-oxadiazol-5-yl}bicyclo[1.1.1]pentan-1-yl)acetamide]",< 50
6,"COc1ccc(Oc2nnc(C34CC(NC(=O)COc5ccc(Cl)c(F)c5)(C3)C4)o2)cc1 [Compound 125, 2-(4-chloro-3-fluorophenoxy)-N-{3-[5-(4-methoxyphenoxy)-1,3,4-oxadiazol-2-yl]bicyclo[1.1.1]pentan-1-yl}acetamide]",250 to 1000
7,"O=C(COc1ccc(Cl)c(F)c1)NC12CC(c3nc(COc4ccc(C(F)(F)F)nc4)no3)(C1)C2 [Compound 161, 2-(4-chloro-3-fluorophenoxy)-N-{3-[3-({[6-(trifluoromethyl)pyridin-3-yl]oxy}methyl)-1,2,4-oxadiazol-5-yl]bicyclo[1.1.1]pentan-1-yl}acetamide]",50 to 250
8,"Cc1ccc(OCc2nnc(C34CC(NC(=O)COc5ccc(Cl)c(F)c5)(C3)C4)o2)cn1 [Compound 146, 2-(4-chloro-3-fluorophenoxy)-N-[3-(5-{[(6-methylpyridin-3-yl)oxy]methyl}-1,3,4-oxadiazol-2-yl)bicyclo[1.1.1]pentan-1-yl]acetamide]",250 to 1000
9,"O=C(COc1ccc(Cl)c(Cl)c1)NC12CC(c3nc(COc4ccc(Cl)cc4)no3)(C1)C2 [Compound 105, N-(3-{3-[(4-chlorophenoxy)methyl]-1,2,4-oxadiazol-5-yl}bicyclo[1.1.1]pentan-1-yl)-2-(3,4-dichlorophenoxy)acetamide]",< 50
10,"O=C(COc1ccc(Cl)c(F)c1)NC12CC(c3nnc(Oc4cccc(C(F)(F)F)c4)o3)(C1)C2 [Compound 139, 2-(4-chloro-3-fluorophenoxy)-N-(3-{5-[3-(trifluoromethyl)phenoxy]-1,3,4-oxadiazol-2-yl}bicyclo[1.1.1]pentan-1-yl)acetamide]",< 50
11,"O=C(COc1ccc(Cl)c(F)c1)NC12CC(c3nc(COc4cnc(C(F)(F)F)c(Cl)c4)no3)(C1)C2 [Compound 162, 2-(4-chloro-3-fluorophenoxy)-N-{3-[3-({[5-chloro-6-(trifluoromethyl)pyridin-3-yl]oxy}methyl)-1,2,4-oxadiazol-5-yl]bicyclo[1.1.1]pentan-1-yl}acetamide]",50 to 250
12,"O=C(COc1ccc(Cl)c(F)c1)NC12CC(c3nnc(COc4ccc(Cl)c(F)c4)o3)(C1)C2 [Compound 115, 2-(4-chloro-3-fluorophenoxy)-N-(3-{5-[(4-chloro-3-fluorophenoxy)methyl]-1,3,4-oxadiazol-2-yl}bicyclo[1.1.1]pentan-1-yl)acetamide]",< 50
13,"O=C(COc1ccc(Cl)c(F)c1)NC12CC(c3nnc(Oc4cncc(C(F)(F)F)c4)o3)(C1)C2 [Compound 117, 2-(4-chloro-3-fluorophenoxy)-N-[3-(5-{[5-(trifluoromethyl)pyridin-3-yl]oxy}-1,3,4-oxadiazol-2-yl)bicyclo[1.1.1]pentan-1-yl]acetamide]",50 to 250
14,"O=C(COc1ccc(Cl)c(F)c1)NC12CC(c3nc(COc4ccc(C5CC5)nc4)no3)(C1)C2 [Compound 163, 2-(4-chloro-3-fluorophenoxy)-N-[3-(3-{[(6-cyclopropylpyridin-3-yl)oxy]methyl}-1,2,4-oxadiazol-5-yl)bicyclo[1.1.1]pentan-1-yl]acetamide]",250 to 1000
15,"O=C(COc1ccc(F)cc1)NC12CC(c3nc(COc4ccc(Cl)cc4)no3)(C1)C2 [Compound 108, N-(3-{3-[(4-chlorophenoxy)methyl]-1,2,4-oxadiazol-5-yl}bicyclo[1.1.1]pentan-1-yl)-2-(4-fluorophenoxy)acetamide]",250 to 1000
16,"COc1ccc(Oc2nnc(C34CC(NC(=O)COc5ccc(Cl)c(F)c5)(C3)C4)o2)cn1 [Compound 120, 2-(4-chloro-3-fluorophenoxy)-N-(3-{5-[(6-methoxypyridin-3-yl)oxy]-1,3,4-oxadiazol-2-yl}bicyclo[1.1.1]pentan-1-yl)acetamide]",50 to 250
17,"Cc1cc(Oc2nnc(C34CC(NC(=O)COc5ccc(Cl)c(F)c5)(C3)C4)o2)cnc1C#N [Compound 118, 2-(4-chloro-3-fluorophenoxy)-N-(3-{5-[(6-cyano-5-methylpyridin-3-yl)oxy]-1,3,4-oxadiazol-2-yl}bicyclo[1.1.1]pentan-1-yl)acetamide]",250 to 1000
18,"COCc1nnc(C23CCC(NC(=O)COc4ccc(Cl)c(F)c4)(CC2)CC3O)o1 (centres unmarked) [Compound 165, 2-(4-chloro-3-fluorophenoxy)-N-{3-hydroxy-4-[5-(methoxymethyl)-1,3,4-oxadiazol-2-yl]bicyclo[2.2.2]octan-1-yl}acetamide]",250 to 1000
19,"O=C(COc1ccc(Cl)c(F)c1)NC12CC(c3nnc(Oc4ccc(F)cc4)o3)(C1)C2 [Compound 126, 2-(4-chloro-3-fluorophenoxy)-N-{3-[5-(4-fluorophenoxy)-1,3,4-oxadiazol-2-yl]bicyclo[1.1.1]pentan-1-yl}acetamide]",< 50
20,"Cc1cc(COCC(=O)NC23CC(c4nc(COc5ccc(Cl)cc5)no4)(C2)C3)no1 [Compound 112, N-(3-{3-[(4-chlorophenoxy)methyl]-1,2,4-oxadiazol-5-yl}bicyclo[1.1.1]pentan-1-yl)-2-[(5-methyl-1,2-oxazol-3-yl)methoxy]acetamide]",> 2000
21,"O=C(COc1ccc(Cl)c(F)c1)NC12CC(c3nnc(COc4cnc5ccoc5c4)o3)(C1)C2 [Compound 152, 2-(4-chloro-3-fluorophenoxy)-N-[3-(5-{[(furo[3,2-b]pyridin-6-yl)oxy]methyl}-1,3,4-oxadiazol-2-yl)bicyclo[1.1.1]pentan-1-yl]acetamide]",1000 to 2000
22,"Cc1cc(OCc2nnc(C34CC(NC(=O)COc5ccc(Cl)c(F)c5)(C3)C4)o2)cnc1C#N [Compound 156, 2-(4-chloro-3-fluorophenoxy)-N-[3-(5-{[(6-cyano-5-methylpyridin-3-yl)oxy]methyl}-1,3,4-oxadiazol-2-yl)bicyclo[1.1.1]pentan-1-yl]acetamide]",1000 to 2000
23,"O=C(COc1ccc(Cl)cc1)NC12CC(c3nnc(COc4ccc(Cl)cc4)o3)(C1)C2 [Compound 100, 2-(4-chlorophenoxy)-N-(3-{5-[(4-chlorophenoxy)methyl]-1,3,4-oxadiazol-2-yl}bicyclo[1.1.1]pentan-1-yl)acetamide]",50 to 250
24,"O=C(COc1ccc(Cl)c(F)c1)NC12CC(c3nnc(Oc4ccc(C5CC5)nc4)o3)(C1)C2 [Compound 121, 2-(4-chloro-3-fluorophenoxy)-N-(3-{5-[(6-cyclopropylpyridin-3-yl)oxy]-1,3,4-oxadiazol-2-yl}bicyclo[1.1.1]pentan-1-yl)acetamide]",50 to 250
25,"Cc1cccc(OCC(=O)NC23CC(c4nc(COc5ccc(Cl)cc5)no4)(C2)C3)c1 [Compound 102, N-(3-{3-[(4-chlorophenoxy)methyl]-1,2,4-oxadiazol-5-yl}bicyclo[1.1.1]pentan-1-yl)-2-(3-methylphenoxy)acetamide]",1000 to 2000
26,"O=C(COc1ccc2c(c1)OC(F)(F)O2)NC12CC(c3nnc(COc4ccc(Cl)c(F)c4)o3)(C1)C2 [Compound 133, N-(3-{5-[(4-chloro-3-fluorophenoxy)methyl]-1,3,4-oxadiazol-2-yl}bicyclo-[1.1.1]pentan-1-yl)-2-[(2,2-difluoro-2H-1,3-benzodioxol-5-yl)oxy]acetamide]",< 50
27,"COCc1nnc([C@]23CC[C@](NC(=O)COc4ccc(Cl)c(F)c4)(CC2)CC3=O)o1 [Compound 164, 2-(4-chloro-3-fluorophenoxy)-N-{4-[5-(methoxymethyl)-1,3,4-oxadiazol-2-yl]-3-oxobicyclo[2.2.2]octan-1-yl}acetamide]",250 to 1000
28,"O=C(COc1ccc(Cl)c(F)c1)NC12CC(c3nnc(Oc4ccccc4F)o3)(C1)C2 [Compound 137, 2-(4-chloro-3-fluorophenoxy)-N-{3-[5-(2-fluorophenoxy)-1,3,4-oxadiazol-2-yl]bicyclo[1.1.1]pentan-1-yl}acetamide]",250 to 1000
29,"O=C(COc1ccc(C(F)(F)F)nc1)NC12CC(c3nc(COc4ccc(Cl)cc4)no3)(C1)C2 [Compound 114, N-(3-{3-[(4-chlorophenoxy)methyl]-1,2,4-oxadiazol-5-yl}bicyclo[1.1.1]pentan-1-yl)-2-{[6-(trifluoromethyl)pyridin-3-yl]oxy}acetamide]",250 to 1000
